Key:
Assay in all cases: standardised AUC of viability dose-response curve (72 h) (fraction (0-1)); higher = less growth inhibition (more resistant)
[1] = system: MES-SA
In short: (§1)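 In 384-well plates, sarcoma cell lines were exposed for 72 h, in triplicate, to 2.5 µl of a 1:3 compound dilution series whose compound-plate concentrations ran from 10 mM to 0.0002 mM. Four-parameter log-logistic models were fitted per drug and cell line to ATPLite viability, scaled 1 (full) to 0 (none). From these fits, a modified drexplorer computeAUC gave the standardised area under the curve in log-dose space. Here 1 marks no response and 0 full response.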

[2] = system: KHOS-NP
In short: as §1

[3] = system: SYO-1
In short: as §1

[4] = system: A204
In short: as §1

[5] = system: SW684
In short: as §1

[6] = system: SW982
In short: as §1

[7] = system: SK-ES-1
In short: as §1

[8] = system: SW872
In short: as §1

[9] = system: KHOS-240S
In short: as §1

[10] = system: SW1353
In short: as §1

[11] = system: SK-LMS-1
In short: as §1

[12] = system: G401
In short: as §1

[13] = system: VA-ES-BJ
In short: as §1

[14] = system: HT1080
In short: as §1

[15] = system: RD
In short: as §1

[16] = system: HS729
In short: as §1

[17] = system: RD-ES
In short: as §1

SMILES | standardised AUC [1] | standardised AUC [2] | standardised AUC [3] | standardised AUC [4] | standardised AUC [5] | standardised AUC [6] | standardised AUC [7] | standardised AUC [8] | standardised AUC [9] | standardised AUC [10] | standardised AUC [11] | standardised AUC [12] | standardised AUC [13] | standardised AUC [14] | standardised AUC [15] | standardised AUC [16] | standardised AUC [17]
CCCS(=O)(=O)N[C@H]1C[C@@H](N(C)c2ncnc3[nH]ccc23)C1 [ABROCITINIB] | 0.996 | 0.994 | 1 | 0.984 | 0.989 | 0.997 | 0.985 | 0.991 | 0.989 | 1 | 0.997 | 0.985 | 1 | 1 | 0.995 | 0.982 | 1
COc1cc2c(Oc3ccc4[nH]c(C)cc4c3F)ccnc2cc1OCC1(N)CC1 [ANLOTINIB] | 0.876 | 0.93 | 0.736 | 0.708 | 0.944 | 0.904 | 0.851 | 0.936 | 0.883 | 0.909 | 0.868 | 0.872 | 0.941 | 0.965 | 0.903 | 0.909 | 0.914
CCN(CCCOc1ccc2c(Nc3cc(CC(=O)Nc4cccc(F)c4)[nH]n3)ncnc2c1)CCOP(=O)(O)O [BARASERTIB] | 0.685 | 1 | 0.581 | 0.816 | 0.972 | 0.745 | 0.4 | 0.94 | 0.856 | 0.915 | 0.938 | 0.869 | 0.8 | 0.925 | 0.826 | 0.928 | 0.5
COc1cc(Nc2c(C#N)cnc3cc(OCCCN4CCN(C)CC4)c(OC)cc23)c(Cl)cc1Cl [BOSUTINIB] | 0.861 | 0.87 | 0.909 | 0.93 | 0.883 | 0.795 | 0.78 | 0.848 | 0.851 | 0.895 | 0.932 | 0.932 | 0.85 | 0.917 | 0.895 | 0.906 | 0.856
COc1cc2nccc(Oc3ccc(NC(=O)C4(C(=O)Nc5ccc(F)cc5)CC4)cc3)c2cc1OC [CABOZANTINIB] | 0.871 | 0.96 | 0.714 | 0.656 | 0.827 | 0.916 | 0.89 | 0.908 | 0.923 | 0.855 | 0.661 | 0.856 | 0.913 | 0.965 | 0.95 | 0.809 | 0.919
Cc1cc(Nc2ncc(Cl)c(Nc3ccccc3S(=O)(=O)C(C)C)n2)c(OC(C)C)cc1C1CCNCC1 [CERITINIB] | 0.916 | 0.933 | 0.884 | 0.87 | 0.923 | 0.827 | 0.751 | 0.901 | 0.874 | 0.865 | 0.924 | 0.833 | 0.933 | 0.918 | 0.81 | 0.889 | 0.784
C[C@@H](Oc1cc(-c2cnn(C3CCNCC3)c2)cnc1N)c1c(Cl)ccc(F)c1Cl [CRIZOTINIB] | 0.765 | 0.944 | 0.745 | 0.877 | 0.901 | 0.74 | 0.72 | 0.834 | 0.873 | 0.915 | 0.717 | 0.859 | 0.817 | 0.919 | 0.824 | 0.879 | 0.758
COc1cc2ncnc(Nc3ccc(F)c(Cl)c3)c2cc1NC(=O)/C=C/CN1CCCCC1 [DACOMITINIB] | 0.858 | 0.939 | 0.856 | 0.842 | 0.888 | 0.814 | 0.824 | 0.87 | 0.896 | 0.804 | 0.91 | 0.89 | 0.893 | 0.916 | 0.869 | 0.907 | 0.879
Cc1nc(Nc2ncc(C(=O)Nc3c(C)cccc3Cl)s2)cc(N2CCN(CCO)CC2)n1 [DASATINIB] | 0.949 | 0.725 | 0.736 | 0.612 | 0.767 | 0.607 | 0.907 | 0.716 | 0.617 | 0.712 | 0.78 | 0.86 | 0.651 | 0.941 | 0.658 | 0.774 | 0.949
COc1cc(OC)cc(N(CCNC(C)C)c2ccc3ncc(-c4cnn(C)c4)nc3c2)c1 [ERDAFITINIB] | 0.796 | 0.971 | 0.581 | 0.555 | 0.924 | 0.816 | 0.818 | 0.856 | 0.773 | 0.868 | 0.91 | 0.604 | 0.912 | 0.964 | 0.924 | 0.685 | 0.891
C#Cc1cccc(Nc2ncnc3cc(OCCOC)c(OCCOC)cc23)c1 [ERLOTINIB] | 0.941 | 0.994 | 0.978 | 0.943 | 0.992 | 0.927 | 0.893 | 0.946 | 0.994 | 0.926 | 0.968 | 0.982 | 0.955 | 0.992 | 0.984 | 0.956 | 0.983
Cc1ccc(NC(=O)c2ccc(CN3CCN(C)CC3)cc2)cc1Nc1nccc(-c2cccnc2)n1 [IMATINIB] | 0.973 | 0.966 | 0.865 | 0.725 | 0.983 | 0.98 | 0.962 | 0.979 | 0.949 | 0.984 | 0.982 | 0.957 | 0.987 | 0.974 | 0.988 | 0.959 | 0.983

Reference: the supplement of paper PMC10883282
